Source: ChEMBL document CHEMBL1122489, “Pyrimidine derivatives. 4. Synthesis and antihypertensive activity of 4-amino-2-(4-cinnamoylpiperazino)-6,7-dimethoxyquinazoline derivatives” (J Med Chem, 1983)

Experiments:
Format in all cases: functional
Rattus norvegicus [1] = assay: Maximum percent decrease in blood pressure in SHR dosed at 3 mg/kg (hour post dose in parentheses)
Rattus norvegicus [2] = assay: Antihypertensive activity rating in conscious SHR after 3 h post dose at 3 mg/kg (po)
Rattus norvegicus [3] = assay: Antihypertensive activity rating in conscious SHR after 6 hr post dose at 3 mg/kg (po)
Rattus norvegicus [4] = assay: Antihypertensive activity rating in conscious SHR after 3 hr post dose at 0.3 mg/kg (po)
[5] = Potency ratio in rat thoracic aorta
Rattus norvegicus [6] = assay: Antihypertensive activity rating in conscious SHR after 24 hr post dose at 1 mg/kg (po)
Rattus norvegicus [7] = assay: Antihypertensive activity rating in conscious SHR after 24 hr post dose at 0.3 mg/kg (po)
Rattus norvegicus [8] = assay: Effect on blood pressure in renal hypertensive rats dosed at 3 mg/kg after 3 h
Rattus norvegicus [9] = assay: Effect on blood pressure in renal hypertensive rats dosed at 3 mg/kg after 1 h
Rattus norvegicus [10] = assay: Effect on blood pressure (initial) in renal hypertensive rats dosed at 10 mg/kg
Rattus norvegicus [11] = assay: Effect on blood pressure in renal hypertensive rats dosed at 10 mg/kg after 12 h
Rattus norvegicus [12] = assay: Antihypertensive activity rating in conscious SHR after 6 hr post dose at 1 mg/kg (po)
Rattus norvegicus [13] = assay: Antihypertensive activity rating in conscious SHR after 1 hr post dose at 0.3 mg/kg (po)
Rattus norvegicus [14] = assay: Effect on blood pressure in renal hypertensive rats dosed at 10 mg/kg after 3 h
Rattus norvegicus [15] = assay: Antihypertensive activity rating in conscious SHR after 1 hr post dose at 3 mg/kg (po)
Rattus norvegicus [16] = assay: Effect on blood pressure in renal hypertensive rats dosed at 10 mg/kg after 6 h
Rattus norvegicus [17] = assay: Antihypertensive activity rating in conscious SHR after 6 hr post dose at 0.3 mg/kg (po)
Rattus norvegicus [18] = species: Rattus norvegicus; assay: Compound was tested for alpha-adrenoceptor blocking activity by its ability to antagonize norepinephrine contraction in the rat thoracic aorta; settings: read-out: pA2 (converted)
Rattus norvegicus [19] = assay: Antihypertensive activity rating in conscious SHR after 3 hr post dose at 1 mg/kg (po)
Rattus norvegicus [20] = assay: Effect on blood pressure in renal hypertensive rats dosed at 3 mg/kg after 6 h
Rattus norvegicus [21] = assay: Maximum percent decrease in blood pressure in SHR dosed at 0.3 mg/kg (hour post dose in parentheses)
Rattus norvegicus [22] = assay: Effect on blood pressure in renal hypertensive rats dosed at 3 mg/kg after 24 h
Rattus norvegicus [23] = assay: Antihypertensive activity rating in conscious SHR after 24 hr post dose at 3 mg/kg (po)
Rattus norvegicus [24] = assay: Maximum percent decrease in blood pressure in SHR dosed at 1 mg/kg (hour post dose in parentheses)
Rattus norvegicus [25] = assay: Effect on blood pressure in renal hypertensive rats dosed at 10 mg/kg after 1 h
Rattus norvegicus [26] = assay: Antihypertensive activity rating in conscious SHR after 1 hr post dose at 1 mg/kg (po)
Rattus norvegicus [27] = assay: Effect on blood pressure in renal hypertensive rats dosed at 10 mg/kg after 24 h
Rattus norvegicus [28] = assay: Effect on blood pressure in renal hypertensive rats dosed at 3 mg/kg after 12 h
Rattus norvegicus [29] = assay: Effect on mean blood pressure (initial) in renal hypertensive rats dosed at 3 mg/kg

| SMILES | Decrease (Rattus norvegicus [1]) [%] | Activity (Rattus norvegicus [2]) | Activity (Rattus norvegicus [3]) | Activity (Rattus norvegicus [4]) | Ratio [5] | Activity (Rattus norvegicus [6]) | Activity (Rattus norvegicus [7]) | Mean blood pressure (Rattus norvegicus [8]) [mmHg] | Mean blood pressure (Rattus norvegicus [9]) [mmHg] | Mean blood pressure (Rattus norvegicus [10]) [mmHg] | Activity (Rattus norvegicus [12]) | Activity (Rattus norvegicus [13]) | Mean blood pressure (Rattus norvegicus [14]) [mmHg] | Activity (Rattus norvegicus [15]) | Mean blood pressure (Rattus norvegicus [16]) [mmHg] | Activity (Rattus norvegicus [17]) | Kb (Rattus norvegicus [18]) [nM] | Activity (Rattus norvegicus [19]) | Mean blood pressure (Rattus norvegicus [20]) [mmHg] | Decrease (Rattus norvegicus [21]) [%] | also measured |
| --- | --- | --- | --- | --- | --- | --- | --- | --- | --- | --- | --- | --- | --- | --- | --- | --- | --- | --- | --- | --- | --- |
| CCOc1ccc(/C=C/C(=O)N2CCN(c3nc(N)c4cc(OC)c(OC)cc4n3)CC2)cc1 | 24 | 1 | 2 | 0 | 0.02 | 0 | 1 | -11.7 | -4 | 204 | 2 | 0 | -16.3 | 0 | -19.1 | 0 | 2.19 | 1 | -14.5 | 13 | Mean blood pressure (Rattus norvegicus [11]): -15.5 mmHg; Mean blood pressure (Rattus norvegicus [22]): -2.6 mmHg; Activity (Rattus norvegicus [23]): 0; Decrease (Rattus norvegicus [24]): 21%; Mean blood pressure (Rattus norvegicus [25]): -6.2 mmHg; Activity (Rattus norvegicus [26]): 0; Mean blood pressure (Rattus norvegicus [27]): -10.4 mmHg; Mean blood pressure (Rattus norvegicus [28]): -10.6 mmHg; Mean blood pressure (Rattus norvegicus [29]): 203 mmHg |
| COc1cc2nc(N3CCN(C(=O)/C=C/c4ccccc4)CC3)nc(N)c2cc1OC | 22 | 1 | 1 | 0 | 0.07 | 0 | 0 | -6.8 | -3.7 | 199 | 1 | 0 | -14.1 | 2 | -15.9 | 1 | 0.724 | 1 | -7.2 | 10 | Mean blood pressure (Rattus norvegicus [22]): -0.1 mmHg; Activity (Rattus norvegicus [23]): 0; Decrease (Rattus norvegicus [24]): 14%; Mean blood pressure (Rattus norvegicus [25]): -12.6 mmHg; Activity (Rattus norvegicus [26]): 1; Mean blood pressure (Rattus norvegicus [27]): -14.1 mmHg; Mean blood pressure (Rattus norvegicus [29]): 195 mmHg |
